Assay results from patent US20220193029A1, “BRYOSTATIN COMPOUNDS FOR ENHANCEMENT OF IMMUNOTHERAPY” (priority 2019, published 2022).

Columns and labels:
PKC = assay: cell-free PKC binding assay, isoform not given; design: species or system human
Method: Because a prerequisite for PKC pathway involvement is binding to PKC, compounds were initially evaluated for PKC affinity in a cell-free competitive binding assay with tritiated phorbol dibutyrate ([^3H]-PDBu). Assays were performed with representative members of both the conventional (PKCα) and novel (PKCδ) PKC families. Subsequently, compounds were assayed for PKC activation in living cells using an isoform translocation assay.
Assay PKC was prepared by dissolving a 4 μg aliquot of the indicated recombinant human PKC isoform (Invitrogen) into 11.6 mL of PKC binding assay buffer (this amount is sufficient for two assays). The diluted PKC was stored on ice for immediate use.
Triplicate data points were obtained for each analog concentration. For each data point, 280 μL of “Master Mix” Solution and 20 μL of analog compound at a specified concentration were added to a polypropylene tube. […] Maximal ^3H-PDBu binding was assessed in triplicate by substitution of the analog compound with 20 μL DMSO. The solutions were vortexed to mix, incubated at 37° C. for 10 min, and incubated on ice for at least 30 min prior to filtration. Using a Brandel Harvester, the assay contents from each polypropylene tube were vacuum-filtered through polyethylenimine-soaked filters, washing with rinsing buffer (3×) and drying first under vacuum for 5 min and then under ambient conditions for ≥2 h. The resulting filters had circular perforations for each data point, which were removed with forceps and placed in a scintillation vial. Scintillation vials were filled with Bio-Safe II scintillation fluid (5 mL) and measured for radioactivity using a Beckman LS 6000SC scintillation counter. Counts per minute (cpm) were averaged for each triplicate dilution. The data were plotted—cpm vs. log(concentration)—using Prism® by GraphPad Software and an IC50 was determined using that program's built-in one-site competition least squares regression function. Ki values were calculated using the equation: Ki=IC50/(1+([3H−PDBu]/Kd)). The Kd of ^3H-PDBu for PKC isoforms was measured separately via saturation binding experiments under identical conditions.

[1] = system: CD22 surface expression in 2F7 cells; assay: CD22 surface expression assay, AIDS-NHL cell line 2F7; conditions: 1 nM or 10 nM, 48 hours
Method: (§1) AIDS-NHL cell lines were incubated in IF10 medium, consisting of IMDM medium (Life technologies) containing 10% fetal bovine serum (FBS, Omega Scientific), 100 units/mL of penicillin, and 100 μg/ml of streptomycin (Invitrogen). Cells were incubated at 37° C. in 5% CO2.
(§2) Cells were exposed to compound for the either 24 or 48 h before staining and flow cytometric analysis of receptor levels.
(§3) Cells in each well were washed with phosphate buffered saline (PBS) containing 2% FBS, then cells were centrifuged for 9 min at 233 xg and resuspended in 50 μL of a 1:1 dilution of phosphate buffered saline (PBS): Human AB serum (Sigma). […] Stained samples were stored at 4° C. Flow cytometry samples were analyzed using a FACSCelesta (BD Biosciences) flow cytometer and data were analyzed using FlowJo software (version 10).
(§4) Panel C: JB cells were incubated with 1 nM (left hand bars) or 10 nM (right hand bars) of compound for 48 hours. CD22 surface expression was then assayed by flow cytometry (n=6 biological replicates; data presented as mean values ±SE). Panel D: 2F7 cells were incubated with 1 nM (left hand bars) or 10 nM (right hand bars) of compound for 48 hours. CD22 surface expression was then assayed by flow cytometry (n=6 biological replicates; data presented as mean values ±SE).

[2] = system: CD22 surface expression in JB cells; assay: CD22 surface expression assay, AIDS-NHL cell line JB; conditions: 1 nM or 10 nM, 48 hours
Method: as §1, §2, §3, §4

Row | Structure (SMILES) | binding affinity to PKC, in words (PKC) | upregulated CD22 surface expression [1] | upregulated CD22 surface expression [2]
1 | CCCCCC#CC(=O)O[C@H]1/C(=C/C(=O)OC)C[C@H]2C[C@H]([C@@H](C)O)OC(=O)C[C@H](O)C[C@@H]3C[C@H](OC(C)=O)C(C)(C)[C@](O)(C[C@@H]4C[C@@](O)(CO)C[C@H](/C=C/C(C)(C)[C@]1(O)O2)O4)O3 [SUW203] | single-digit nanomolar affinity |  | 
2 | C=CCOC(=O)/C=C1/C[C@H]2C[C@]3(O)O[C@H](C[C@@H](O)CC(=O)O[C@@H]([C@@H](C)O)C[C@@H]4C/C(=C\C(=O)OC)[C@H](OC(=O)/C=C/C=C/CCC)[C@@](O)(O4)C(C)(C)/C=C/[C@@H](C1)O2)C[C@H](OC(C)=O)C3(C)C [SUW229] |  | ~2 fold | ~2 fold
